# According to patent publication US20260250289A1, “BICYCLIC HETEROCYCLES AND THEIR USE AS WRN INHIBITORS” (Novartis AG, priority 2022, published 2026):
# pIC50: −log10 of the molar value.
# Assays:
# SW48 cells = test: Proliferation assay SW48 (CellTiterGlo); assay type: cell-based; settings: Homo sapiens, SW48, 96 h, SW48 colon carcinoma cells, 96 hours, CellTiterGlo; geometric mean of at least 2; read-out: Proliferation Assay SW48 GI50
# Outline: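 Read-out is CellTiterGlo luminescence after 96 hours of compound exposure, with % growth calculated against day-0 and vehicle-treated ATP levels. SW48 seeded at 2,000 cells/well, dosed next day with eight 3-fold serial dilutions, 0.1% DMSO. GI50 reported as geometric mean, at least 2 replicates.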
# [1] = molecular target: T1, WRN helicase (aa N517-P1238) (Homo sapiens, UniProt Q14191); test: WRN ATPase assay (DNA dependent ATP hydrolysis, ADP-Glo); assay type: biochemical; settings: 3 hours pre-incubation, 300 micromolar ATP, FLAP26 DNA; geometric mean of at least 2
# T1 construct: The core helicase motif of the WRN protein (aa N517-P1238) was produced for this assay; His (N); ZZ (N); 3C protease cleavage site (N); made in house; host or cells: Sf21 insect cells (baculovirus; virus and BIICs made in SF9)
# T1 sequence (Q14191 517-1238): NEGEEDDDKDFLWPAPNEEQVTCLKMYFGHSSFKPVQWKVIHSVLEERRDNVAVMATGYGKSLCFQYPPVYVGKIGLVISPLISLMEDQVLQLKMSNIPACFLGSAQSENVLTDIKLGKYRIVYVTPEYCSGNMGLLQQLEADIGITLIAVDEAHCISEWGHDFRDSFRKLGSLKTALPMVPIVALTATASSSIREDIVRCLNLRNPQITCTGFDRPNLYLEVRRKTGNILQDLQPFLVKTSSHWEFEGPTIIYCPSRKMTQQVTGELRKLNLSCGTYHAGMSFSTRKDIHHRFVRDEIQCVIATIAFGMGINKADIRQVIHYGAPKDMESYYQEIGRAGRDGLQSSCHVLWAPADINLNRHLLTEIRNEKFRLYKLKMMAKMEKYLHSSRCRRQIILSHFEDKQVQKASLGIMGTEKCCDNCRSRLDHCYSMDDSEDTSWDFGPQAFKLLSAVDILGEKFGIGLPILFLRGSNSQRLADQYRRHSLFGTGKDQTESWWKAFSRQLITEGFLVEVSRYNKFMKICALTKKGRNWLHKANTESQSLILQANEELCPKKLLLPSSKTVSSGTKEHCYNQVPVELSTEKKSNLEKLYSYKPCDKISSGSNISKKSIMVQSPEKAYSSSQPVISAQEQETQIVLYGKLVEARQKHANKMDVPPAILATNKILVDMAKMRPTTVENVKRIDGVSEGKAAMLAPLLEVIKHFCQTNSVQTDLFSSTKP
# Outline: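 DNA-dependent ATP hydrolysis detected as ADP by ADP-Glo luminescence, using 300 μM ATP, 0.2 nM FLAP26 substrate and 10 nM WRN aa N517-P1238 (Tris pH 7.5 buffer, 2 mM MgCl2, 50 mM NaCl). IC50s fitted from normalized duplicate half-log dilutions; reported as geometric means of at least 2 replicates.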
# DLD1-WRN-KO cells = test: Proliferation assay DLD1-WRN-KO (CellTiterGlo, off-target effects); assay type: cell-based; settings: 96 hours, geometric mean of at least 2
# Outline: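 DLD1 cells with CRISPR knockout of WRN were exposed overnight-seeded to eight 3-fold compound dilutions (0.1% DMSO) for 96 h at 37 °C. Viability was read as ATP by CellTiterGlo luminescence against a day-0 plate, giving GI50 and residual viability at top concentration.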
Compound,GI50 (SW48 cells) [µM],pIC50 [1],GI50 (DLD1-WRN-KO cells) [µM]
"CCc1ccc(NC(=O)Cn2c(C)c(N3CCN(C(C)=O)CC3)c(=O)n3nc(C4=CCOCC4)nc23)cc1Cl [Example 30, 2-(6-(4-acetylpiperazin-1-yl)-2-(3,6-dihydro-2H-pyran-4-yl)-5-methyl-7-oxo-[1,2,4]triazolo[1,5-a]pyrimidin-4(7H)-yl)-N-(3-chloro-4-ethylphenyl)acetamide]",2,7.00,> 10
"CCc1c(N2CCN(C(=O)c3ncc4c(c3O)OCC4)CC2)c(=O)n2nc(C3=CCOCC3)nc2n1CC(=O)Nc1ccc(C(F)(F)F)cc1C [Example 37, 2-(2-(3,6-dihydro-2H-pyran-4-yl)-5-ethyl-6-(4-(7-hydroxy-2,3-dihydrofuro[3,2-c]pyridine-6-carbonyl)piperazin-1-yl)-7-oxo-[1,2,4]triazolo[1,5-a]pyrimidin-4(7H)-yl)-N-(2-methyl-4-(trifluoromethyl)phenyl)acetamide]",0.09,7.05,> 10
"CC(=O)N1CCN(c2c(C)n(CC(=O)Nc3cc(Cl)c(C)cc3Cl)c3nc(C4=CCOCC4)nn3c2=O)CC1 [Example 100, 2-(6-(4-acetylpiperazin-1-yl)-2-(3,6-dihydro-2H-pyran-4-yl)-5-methyl-7-oxo-[1,2,4]triazolo[1,5-a]pyrimidin-4(7H)-yl)-N-(2,5-dichloro-4-methylphenyl)acetamide]",4,5.70,> 10
"CC(=O)N1CCN(c2c(C3CC3)n(CC(=O)Nc3ccc(C(F)(F)F)cc3)c3nc(C4=CCOCC4)nn3c2=O)CC1 [Example 147, 2-(6-(4-acetylpiperazin-1-yl)-5-cyclopropyl-2-(3,6-dihydro-2H-pyran-4-yl)-7-oxo-[1,2,4]triazolo[1,5-a]pyrimidin-4(7H)-yl)-N-(4-(trifluoromethyl)phenyl)acetamide]",6,6.22,> 10
"CCc1c(N2CCN(C(=O)c3ncn(C)c3O)CC2)c(=O)n2nc(C3=CCOCC3)nc2n1CC(=O)Nc1ccc(C(F)(F)F)cc1Cl [Example 67, N-(2-chloro-4-(trifluoromethyl)phenyl)-2-(2-(3,6-dihydro-2H-pyran-4-yl)-5-ethyl-6-(4-(5-hydroxy-1-methyl-1H-imidazole-4-carbonyl)piperazin-1-yl)-7-oxo-[1,2,4]triazolo[1,5-a]pyrimidin-4(7H)-yl)acetamide]",3,6.52,> 10

# More lines, now with the values ahead:
GI50 (SW48 cells) [µM],pIC50 [1],GI50 (DLD1-WRN-KO cells) [µM],Compound
6,6.22,> 10,"COCC1=CCN(c2nc3n(CC(=O)Nc4ccc(C(F)(F)F)cc4)c(C)c(N4CCN(C(C)=O)CC4)c(=O)n3n2)CC1 [Example 120, 2-(6-(4-acetylpiperazin-1-yl)-2-(4-(methoxymethyl)-3,6-dihydropyridin-1(2H)-yl)-5-methyl-7-oxo-[1,2,4]triazolo[1,5-a]pyrimidin-4(7H)-yl)-N-(4-(trifluoromethyl)phenyl)acetamide]"
4,6.70,> 10,"Cc1cccc(O)c1C(=O)N1CCN(c2c(C)n(CC(=O)Nc3ccc(C(F)(F)F)cc3)c3nc(C4=CCOCC4)nn3c2=O)CC1 [Example 25, 2-(2-(3,6-dihydro-2H-pyran-4-yl)-6-(4-(2-hydroxy-6-methylbenzoyl)piperazin-1-yl)-5-methyl-7-oxo-[1,2,4]triazolo[1,5-a]pyrimidin-4(7H)-yl)-N-(4-(trifluoromethyl)phenyl)acetamide]"
4,6.10,> 10,"CC(=O)N1CCN(c2c(C)n(CC(=O)Nc3ccc(C(F)(F)F)cc3)c3nc(C4=CCCOC4)nn3c2=O)CC1 [Example 126, 2-(6-(4-acetylpiperazin-1-yl)-2-(5,6-dihydro-2H-pyran-3-yl)-5-methyl-7-oxo-[1,2,4]triazolo[1,5-a]pyrimidin-4(7H)-yl)-N-(4-(trifluoromethyl)phenyl)acetamide]"
7,< 5.52,5,"CC(=O)N1CCN(c2c(C)n(CC(=O)Nc3ccc(Cl)c(Cl)c3)c3nc(-c4ccc(CN(C)C(=O)OC5CC/C=C/CCC5)cc4)nn3c2=O)CC1 (stereo not drawn) [Example 102, (E)-cyclooct-4-en-1-yl (4-(6-(4-acetylpiperazin-1-yl)-4-(2-((3,4-dichlorophenyl)amino)-2-oxoethyl)-5-methyl-7-oxo-4,7-dihydro-[1,2,4]triazolo[1,5-a]pyrimidin-2-yl)benzyl)(methyl)carbamate]"
4,6.15,> 10,"CCc1ccc(NC(=O)Cn2c(C)c(N3CCN(C(C)=O)CC3)c(=O)n3nc(C4=CCOCC4)nc23)cc1F [Example 92, 2-(6-(4-acetylpiperazin-1-yl)-2-(3,6-dihydro-2H-pyran-4-yl)-5-methyl-7-oxo-[1,2,4]triazolo[1,5-a]pyrimidin-4(7H)-yl)-N-(4-ethyl-3-fluorophenyl)acetamide]"
> 10,7.70,7,"CC(=O)N1CCN(c2c(C)n(CC(=O)Nc3ccc(S(F)(F)(F)(F)F)cc3)c3nc(C4=CCCCO4)nn3c2=O)CC1 [Example 127, 2-(6-(4-acetylpiperazin-1-yl)-2-(3,4-dihydro-2H-pyran-6-yl)-5-methyl-7-oxo-[1,2,4]triazolo[1,5-a]pyrimidin-4(7H)-yl)-N-(4-(pentafluoro-16-sulfaneyl)phenyl)acetamide]"
